Test results taken from US20250019385A1, “SPIROCYCLIC ANNULATED 2-AMINO-3-CYANO THIOPHENES AND DERIVATIVES FOR THE TREATMENT OF CANCER” (Boehringer Ingelheim International GmbH, priority 2023, published 2025).

test system: Ba/F3 cells KRAS G12V; assay: Ba/F3 proliferation assay (KRAS G12V); type: cell-based; settings: Mus musculus, BaF3, 72 h, AlamarBlue viability
Description: (§1) Ba/F3 cells are ordered from DSMZ (ACC300, Lot17) and grown in RPMI-1640 (ATCC 30-2001)+10% FCS+10 ng/mL IL-3 at 37° C. in 5% […] atmosphere. Plasmids containing KRASG12 mutants (i.e. […], G12C, G12V) are obtained from GeneScript. To generate KRASG12-dependent Ba/F3 models, Ba/F3 cells are transduced with retroviruses containing vectors that harbor KRASG12 isoforms. Platinum-E cells (Cell Biolabs) are used for retrovirus packaging. Retrovirus is added to Ba/F3 cells. To ensure infection, 4 μg/mL polybrene is added and cells are spinfected. Infection efficiency is confirmed by measuring GFP-positive cells using a cell analyzer. Cells with an infection efficiency of 10% to 20% are further cultivated and puromycin selection with 1 μg/mL is initiated. As a control, parental Ba/F3 cells are used to show selection status. Selection is considered successful when parental Ba/F3 cells cultures died. To evaluate the transforming potential of KRASG12 mutations, the growth medium is no longer supplemented with IL-3. Ba/F3 cells harboring the empty vector are used as a control. Approximately ten days before conducting the experiments, puromycin is left out.
(§2) For proliferation assays, Ba/F3 cells are seeded into 384-well plates at 1.5×1 (M cells/60 μL in growth media (RPMI-1640+10% FCS). Compounds (10 mM stock in DMSO) are added at logarithmic dose series using the ECHO acoustic liquid handler system (Beckman Coulter), normalizing for added DMSO and including DMSO controls. All compound treatments are performed in technical duplicates. For the TO time point measurement, untreated cells are analyzed at the time of compound addition. Treated cells are incubated for 72 h at 37° C. with 5% CO2 and cell viability is measured in the PerkinElmer Envision Multimode Reader using AlamarBlue™ (ThermoFisher) viability stain. Viability (stated as percent of control) is defined as relative fluorescence units RFU of each well divided by the RFU of cells in DMSO controls. IC50 values are determined from viability measurements by non-linear regression using a four-parameter model.

SMILES	IC50
C[C@H](Oc1nc(-c2noc3c2CCC[C@@]32CCCc3sc(N)c(C#N)c32)nc2c1COC[C@]21CCOC1)[C@@H]1CCCN1C [II-8]	1 nM
COCCn1c(=O)n([C@@H]2CCOC2)c2nc(-c3onc4c3CCC[C@@]43CCCc4sc(N)c(C#N)c43)nc(O[C@@H](C)[C@@H]3CCCN3C)c21 [I-1]	8 nM
Cc1nc2c(O[C@@H](C)[C@@H]3CCCN3C)nc(-c3onc4c3CCC[C@@]43CCCc4sc(N)c(C#N)c43)nc2n1[C@@H]1CCOC1 [I-39]	12 nM
CCn1c(=O)n([C@@H]2CCCOC2)c2nc(-c3onc4c3CCC[C@@]43CCCc4sc(N)c(C#N)c43)nc(O[C@@H](C)[C@@H]3CCCN3C)c21 [I-30]	5 nM
C[C@H](Oc1nc(-c2onc3c2CCC[C@@]32CCCc3sc(N)c(C#N)c32)nc2c1n(C)c(=O)n2[C@H]1CC2CCC1O2)[C@@H]1CCCN1C (stereo partly shown) [I-17]	20 nM
CO[C@H]1CCN(C)[C@@H]1[C@H](C)Oc1nc(-c2noc3c2CCC[C@@]32CCCc3sc(N)c(C#N)c32)nc2c1n(C)c(=O)n2[C@@H]1CCOC1 [II-1]	2 nM
CCn1c(=O)n([C@@H]2CCCOC2)c2nc(-c3onc4c3CCC[C@@]43CCCc4sc(N)c(C#N)c43)nc(OCC34CCCN3CCC4)c21 [I-34]	553 nM

test system: Ba/F3 cells KRAS G12C; assay: Ba/F3 proliferation assay (KRAS G12C); type: cell-based; settings: Mus musculus, BaF3, 72 h, AlamarBlue viability
Description: as §1, §2

SMILES	IC50
C[C@H](Oc1nc(-c2noc3c2CCC[C@@]32CCCc3sc(N)c(C#N)c32)nc2c1COC[C@]21CCOC1)[C@@H]1CCCN1C [II-8]	2 nM
COCCn1c(=O)n([C@@H]2CCOC2)c2nc(-c3onc4c3CCC[C@@]43CCCc4sc(N)c(C#N)c43)nc(O[C@@H](C)[C@@H]3CCCN3C)c21 [I-1]	15 nM
Cc1nc2c(O[C@@H](C)[C@@H]3CCCN3C)nc(-c3onc4c3CCC[C@@]43CCCc4sc(N)c(C#N)c43)nc2n1[C@@H]1CCOC1 [I-39]	24 nM
CCn1c(=O)n([C@@H]2CCCOC2)c2nc(-c3onc4c3CCC[C@@]43CCCc4sc(N)c(C#N)c43)nc(O[C@@H](C)[C@@H]3CCCN3C)c21 [I-30]	11 nM
C[C@H](Oc1nc(-c2onc3c2CCC[C@@]32CCCc3sc(N)c(C#N)c32)nc2c1n(C)c(=O)n2[C@H]1CC2CCC1O2)[C@@H]1CCCN1C (stereo partly shown) [I-17]	37 nM
CO[C@H]1CCN(C)[C@@H]1[C@H](C)Oc1nc(-c2noc3c2CCC[C@@]32CCCc3sc(N)c(C#N)c32)nc2c1n(C)c(=O)n2[C@@H]1CCOC1 [II-1]	4 nM
CCn1c(=O)n([C@@H]2CCCOC2)c2nc(-c3onc4c3CCC[C@@]43CCCc4sc(N)c(C#N)c43)nc(OCC34CCCN3CCC4)c21 [I-34]	1180 nM

test system: LOVO cells; assay: LOVO CTG proliferation assay (120 h) (CRC, G13D); type: cell-based; settings: Homo sapiens
Description: LOVO cells (ATCC No. CCL-229) are dispensed into black 384-well plates, flat and clear bottom (Greiner, PNr. 781091) at a density of 1000 cells per well in 60 μl DMEM (Sigma D6429)+10% FCS (fetal calf serum, HyClone, SH30084.03). Cells are incubated overnight at 37° C. in a humidified tissue culture incubator at 5% CO2. Compounds (10 mM stock in DMSO) are added at logarithmic dose series using the ECHO acoustic liquid handler system (Beckman Coulter), normalizing for added DMSO and including DMSO controls. All compound treatments are performed in technical duplicates. For the TO time point measurement, untreated cells are analyzed at the time of compound addition. Plates are incubated for 120 h, and cell viability is measured using CellTiter-Glo luminescent cell viability reagent (Promega product code G7570). Viability (stated as percent of control) is defined as relative luminescence units RLU of each well divided by the RLU of cells in DMSO controls. IC50 values are determined from viability measurements by non-linear regression using a four-parameter model.
IC50 values of representative compounds according to the invention measured with these assays in the indicated cell lines are presented in Table 46.

SMILES	IC50
C[C@H](Oc1nc(-c2noc3c2CCC[C@@]32CCCc3sc(N)c(C#N)c32)nc2c1COC[C@]21CCOC1)[C@@H]1CCCN1C [II-8]	2 nM
COCCn1c(=O)n([C@@H]2CCOC2)c2nc(-c3onc4c3CCC[C@@]43CCCc4sc(N)c(C#N)c43)nc(O[C@@H](C)[C@@H]3CCCN3C)c21 [I-1]	5 nM
Cc1nc2c(O[C@@H](C)[C@@H]3CCCN3C)nc(-c3onc4c3CCC[C@@]43CCCc4sc(N)c(C#N)c43)nc2n1[C@@H]1CCOC1 [I-39]	19 nM
CCn1c(=O)n([C@@H]2CCCOC2)c2nc(-c3onc4c3CCC[C@@]43CCCc4sc(N)c(C#N)c43)nc(O[C@@H](C)[C@@H]3CCCN3C)c21 [I-30]	7 nM
C[C@H](Oc1nc(-c2onc3c2CCC[C@@]32CCCc3sc(N)c(C#N)c32)nc2c1n(C)c(=O)n2[C@H]1CC2CCC1O2)[C@@H]1CCCN1C (stereo partly shown) [I-17]	14 nM
CO[C@H]1CCN(C)[C@@H]1[C@H](C)Oc1nc(-c2noc3c2CCC[C@@]32CCCc3sc(N)c(C#N)c32)nc2c1n(C)c(=O)n2[C@@H]1CCOC1 [II-1]	2 nM
CCn1c(=O)n([C@@H]2CCCOC2)c2nc(-c3onc4c3CCC[C@@]43CCCc4sc(N)c(C#N)c43)nc(OCC34CCCN3CCC4)c21 [I-34]	1340 nM

test system: not listed separately; assay: Plasma protein binding assay (PPB), equilibrium dialysis; type: in vitro ADME; settings: bovine, 10% FCS in PBS, read-out: PPB 10% FCS (% fu)
Description: Binding of test compounds to plasma was determined using equilibrium dialysis (ED) and quantitative mass spectrometry interfaced with liquid chromatography (LC-MS). In brief, ED was performed with dialysis devices consisting of two chambers separated by a semipermeable membrane with a molecular weight cut-off of 5-10 kg/mol. One chamber was filled with 10% FCS in PBS containing 1-10 μmol/L test compound and the other chamber was filled with phosphate-buffer saline (PBS) with or without dextran. The dialysis chamber was incubated for 3-5 hours at 37° C. After incubation, protein was precipitated from aliquots of each chamber and the concentration of test compound in the supernatant of the plasma-containing compartment (cserum) and of the buffer-containing compartment (cbuffer) was determined by LC-MS. The fraction of unbound test compound (not bound to plasma) (f) was calculated according to the following equation: […]

SMILES	fraction unbound
C[C@H](Oc1nc(-c2noc3c2CCC[C@@]32CCCc3sc(N)c(C#N)c32)nc2c1COC[C@]21CCOC1)[C@@H]1CCCN1C [II-8]	0.13
COCCn1c(=O)n([C@@H]2CCOC2)c2nc(-c3onc4c3CCC[C@@]43CCCc4sc(N)c(C#N)c43)nc(O[C@@H](C)[C@@H]3CCCN3C)c21 [I-1]	0.34
Cc1nc2c(O[C@@H](C)[C@@H]3CCCN3C)nc(-c3onc4c3CCC[C@@]43CCCc4sc(N)c(C#N)c43)nc2n1[C@@H]1CCOC1 [I-39]	0.24
CCn1c(=O)n([C@@H]2CCCOC2)c2nc(-c3onc4c3CCC[C@@]43CCCc4sc(N)c(C#N)c43)nc(O[C@@H](C)[C@@H]3CCCN3C)c21 [I-30]	0.08
C[C@H](Oc1nc(-c2onc3c2CCC[C@@]32CCCc3sc(N)c(C#N)c32)nc2c1n(C)c(=O)n2[C@H]1CC2CCC1O2)[C@@H]1CCCN1C (stereo partly shown) [I-17]	0.04
CO[C@H]1CCN(C)[C@@H]1[C@H](C)Oc1nc(-c2noc3c2CCC[C@@]32CCCc3sc(N)c(C#N)c32)nc2c1n(C)c(=O)n2[C@@H]1CCOC1 [II-1]	0.09
CCn1c(=O)n([C@@H]2CCCOC2)c2nc(-c3onc4c3CCC[C@@]43CCCc4sc(N)c(C#N)c43)nc(OCC34CCCN3CCC4)c21 [I-34]	0.07
